Measurements reported in PubChem BioAssay (NCI).
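The compound was tested at five concentrations on cells cultured in 96-well plates, with a 48-hour exposure period. At the TGI there is no net growth.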

Experiments:
Test in all cases: NCI-60 cell line screen, 48 h
EKVX NSCLC = test system: EKVX NSCLC
SNB-75 CNS = test system: SNB-75 CNS
OVCAR-3 ovarian = test system: OVCAR-3 ovarian
786-0 renal = test system: 786-0 renal
SN12C renal = test system: SN12C renal
HOP-62 NSCLC = test system: HOP-62 NSCLC
NCI-H23 lung = test system: NCI-H23 lung
SW-620 colon = test system: SW-620 colon
RPMI-8226 leukemia = test system: RPMI-8226 leukemia
UACC-257 melanoma = test system: UACC-257 melanoma
OVCAR-4 ovarian = test system: OVCAR-4 ovarian
TK-10 renal = test system: TK-10 renal
RXF 393 renal = test system: RXF 393 renal
NCI-H460 lung = test system: NCI-H460 lung
SK-OV-3 ovarian = test system: SK-OV-3 ovarian
HT29 colon = test system: HT29 colon
OVCAR-5 ovarian = test system: OVCAR-5 ovarian
MOLT-4 leukemia = test system: MOLT-4 leukemia
K-562 leukemia = test system: K-562 leukemia
HCT-116 colon = test system: HCT-116 colon
SK-MEL-5 melanoma = test system: SK-MEL-5 melanoma
KM12 colon = test system: KM12 colon
HCT-15 colon = test system: HCT-15 colon
SK-MEL-2 melanoma = test system: SK-MEL-2 melanoma
CAKI-1 renal = test system: CAKI-1 renal
DMS 273 small cell lung = test system: DMS 273 small cell lung
SF-295 CNS = test system: SF-295 CNS
SF-268 CNS = test system: SF-268 CNS
SK-MEL-28 melanoma = test system: SK-MEL-28 melanoma
SF-539 CNS = test system: SF-539 CNS
M19-MEL melanoma = test system: M19-MEL melanoma
OVCAR-8 ovarian = test system: OVCAR-8 ovarian
HCC-2998 colon = test system: HCC-2998 colon
A549 NSCLC = test system: A549 NSCLC
XF 498 CNS = test system: XF 498 CNS
NCI-H226 lung = test system: NCI-H226 lung
KM20L2 colon = test system: KM20L2 colon
COLO 205 colon = test system: COLO 205 colon
DMS 114 small cell lung = test system: DMS 114 small cell lung
ACHN renal = test system: ACHN renal
HL-60(TB) leukemia = test system: HL-60(TB) leukemia
M14 melanoma = test system: M14 melanoma
A498 renal = test system: A498 renal
SNB-78 CNS = test system: SNB-78 CNS
LOX IMVI melanoma = test system: LOX IMVI melanoma
U251 CNS = test system: U251 CNS
IGROV1 ovarian = test system: IGROV1 ovarian
SR leukemia = test system: SR leukemia
MALME-3M melanoma = test system: MALME-3M melanoma
NCI-H522 lung = test system: NCI-H522 lung
PC-3 prostate = test system: PC-3 prostate
HOP-92 NSCLC = test system: HOP-92 NSCLC
BT-549 breast = test system: BT-549 breast
UO-31 renal = test system: UO-31 renal
DU-145 prostate = test system: DU-145 prostate
UACC-62 melanoma = test system: UACC-62 melanoma
CCRF-CEM leukemia = test system: CCRF-CEM leukemia
NCI/ADR-RES ovarian = test system: NCI/ADR-RES ovarian
MDA-MB-231 breast = test system: MDA-MB-231 breast
SNB-19 CNS = test system: SNB-19 CNS
T-47D breast = test system: T-47D breast
MCF7 breast = test system: MCF7 breast
MDA-N = test system: MDA-N
HS 578T breast = test system: HS 578T breast
MDA-MB-435 = test system: MDA-MB-435

Cc1ccc(C=NC23CC4CC(CC(C4)C2)C3)cc1
TGI (EKVX NSCLC): > 100 µM
TGI (SNB-75 CNS): > 100 µM
TGI (OVCAR-3 ovarian): > 100 µM
TGI (786-0 renal): > 100 µM
TGI (SN12C renal): > 100 µM
TGI (HOP-62 NSCLC): > 100 µM
TGI (NCI-H23 lung): > 100 µM
TGI (SW-620 colon): > 100 µM
TGI (RPMI-8226 leukemia): > 100 µM
TGI (UACC-257 melanoma): > 100 µM
TGI (OVCAR-4 ovarian): > 100 µM
TGI (TK-10 renal): > 100 µM
TGI (RXF 393 renal): > 100 µM
TGI (NCI-H460 lung): > 100 µM
TGI (SK-OV-3 ovarian): > 100 µM
TGI (HT29 colon): > 100 µM
TGI (OVCAR-5 ovarian): > 100 µM
TGI (MOLT-4 leukemia): > 100 µM
TGI (K-562 leukemia): > 100 µM
TGI (HCT-116 colon): > 100 µM
TGI (SK-MEL-5 melanoma): > 100 µM
TGI (KM12 colon): > 100 µM
TGI (HCT-15 colon): > 100 µM
TGI (SK-MEL-2 melanoma): > 100 µM
TGI (CAKI-1 renal): > 100 µM
TGI (DMS 273 small cell lung): > 100 µM
TGI (SF-295 CNS): > 100 µM
TGI (SF-268 CNS): > 100 µM
TGI (SK-MEL-28 melanoma): > 100 µM
TGI (SF-539 CNS): > 100 µM
TGI (M19-MEL melanoma): > 100 µM
TGI (OVCAR-8 ovarian): > 100 µM
TGI (HCC-2998 colon): > 100 µM
TGI (A549 NSCLC): > 100 µM
TGI (XF 498 CNS): > 100 µM
TGI (NCI-H226 lung): > 100 µM
TGI (KM20L2 colon): > 100 µM
TGI (COLO 205 colon): > 100 µM
TGI (DMS 114 small cell lung): > 100 µM
TGI (ACHN renal): > 100 µM
TGI (HL-60(TB) leukemia): > 100 µM
TGI (M14 melanoma): > 100 µM
TGI (A498 renal): > 100 µM
TGI (SNB-78 CNS): > 100 µM
TGI (LOX IMVI melanoma): > 100 µM
TGI (U251 CNS): > 100 µM
TGI (IGROV1 ovarian): > 100 µM
TGI (SR leukemia): > 100 µM
TGI (MALME-3M melanoma): > 100 µM

CN(C)CCNC(=O)c1ccc(Cl)c2cc3ccccc3nc12
TGI (EKVX NSCLC): 4.78 µM
TGI (SNB-75 CNS): 5.84 µM
TGI (OVCAR-3 ovarian): 6.88 µM
TGI (NCI-H522 lung): 2.07 µM
TGI (786-0 renal): 5.61 µM
TGI (SN12C renal): 4.18 µM
TGI (PC-3 prostate): 2.6 µM
TGI (HOP-92 NSCLC): 2.2 µM
TGI (HOP-62 NSCLC): 4.6 µM
TGI (NCI-H23 lung): 2.08 µM
TGI (BT-549 breast): 7.82 µM
TGI (SW-620 colon): 6.68 µM
TGI (RPMI-8226 leukemia): 3.9 µM
TGI (UO-31 renal): 11 µM
TGI (UACC-257 melanoma): 2.64 µM
TGI (OVCAR-4 ovarian): 3.34 µM
TGI (TK-10 renal): 5.95 µM
TGI (RXF 393 renal): 3.08 µM
TGI (NCI-H460 lung): 3.9 µM
TGI (SK-OV-3 ovarian): 12.8 µM
TGI (HT29 colon): 4.9 µM
TGI (OVCAR-5 ovarian): 10.7 µM
TGI (MOLT-4 leukemia): 4.03 µM
TGI (K-562 leukemia): 12.3 µM
TGI (HCT-116 colon): 5.48 µM
TGI (SK-MEL-5 melanoma): 2.44 µM
TGI (KM12 colon): 11.4 µM
TGI (HCT-15 colon): 7.15 µM
TGI (SK-MEL-2 melanoma): 4.94 µM
TGI (CAKI-1 renal): 11.6 µM
TGI (SF-295 CNS): 4.33 µM
TGI (SF-268 CNS): 5.05 µM
TGI (SK-MEL-28 melanoma): 4.03 µM
TGI (SF-539 CNS): 3.28 µM
TGI (DU-145 prostate): 6.2 µM
TGI (OVCAR-8 ovarian): 6.44 µM
TGI (HCC-2998 colon): 3.52 µM
TGI (A549 NSCLC): 3.08 µM
TGI (UACC-62 melanoma): 2.85 µM
TGI (NCI-H226 lung): 4.7 µM
TGI (CCRF-CEM leukemia): 4.64 µM
TGI (NCI/ADR-RES ovarian): 5.65 µM
TGI (MDA-MB-231 breast): 3 µM
TGI (COLO 205 colon): 1.64 µM
TGI (SNB-19 CNS): 14.3 µM
TGI (T-47D breast): 12.1 µM
TGI (MCF7 breast): 3.58 µM
TGI (MDA-N): 2.21 µM
TGI (ACHN renal): 12.1 µM
TGI (HL-60(TB) leukemia): 3.98 µM
TGI (M14 melanoma): 2.62 µM
TGI (A498 renal): 1.33 µM
TGI (HS 578T breast): 3.07 µM
TGI (MDA-MB-435): 2.22 µM
TGI (LOX IMVI melanoma): 1.4 µM
TGI (U251 CNS): 10.6 µM
TGI (IGROV1 ovarian): 11.3 µM
TGI (SR leukemia): 3.03 µM
TGI (MALME-3M melanoma): 2.26 µM
